Source: article PMC4834642, “Orthogonal ring-closing alkyne and olefin metathesis for the synthesis of small GTPase-targeting bicyclic peptides” (Nature Communications, 2016)
Bridge positions count the residues as written; N and C are the ends. Square brackets hold non-standard residues; d marks the D form. Peptide text beside a SMILES is read from it. S5 = C=CCCC[C@](C)(N)C(=O)O

T1: Rab8a6-176(GppNHp) (Homo sapiens, UniProt P61006)
T1 construct: Expression and purification of Rab8a6-176 was performed analog to full-length Rab8a; made in house
T1 sequence (P61006 6-176): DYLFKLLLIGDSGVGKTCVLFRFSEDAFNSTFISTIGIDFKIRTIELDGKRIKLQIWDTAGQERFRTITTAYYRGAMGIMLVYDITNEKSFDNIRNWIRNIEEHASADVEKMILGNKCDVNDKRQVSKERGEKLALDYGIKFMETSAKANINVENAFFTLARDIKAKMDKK

T2: peptide 28 (Homo sapiens, UniProt Q6IQ26)
T2 chain: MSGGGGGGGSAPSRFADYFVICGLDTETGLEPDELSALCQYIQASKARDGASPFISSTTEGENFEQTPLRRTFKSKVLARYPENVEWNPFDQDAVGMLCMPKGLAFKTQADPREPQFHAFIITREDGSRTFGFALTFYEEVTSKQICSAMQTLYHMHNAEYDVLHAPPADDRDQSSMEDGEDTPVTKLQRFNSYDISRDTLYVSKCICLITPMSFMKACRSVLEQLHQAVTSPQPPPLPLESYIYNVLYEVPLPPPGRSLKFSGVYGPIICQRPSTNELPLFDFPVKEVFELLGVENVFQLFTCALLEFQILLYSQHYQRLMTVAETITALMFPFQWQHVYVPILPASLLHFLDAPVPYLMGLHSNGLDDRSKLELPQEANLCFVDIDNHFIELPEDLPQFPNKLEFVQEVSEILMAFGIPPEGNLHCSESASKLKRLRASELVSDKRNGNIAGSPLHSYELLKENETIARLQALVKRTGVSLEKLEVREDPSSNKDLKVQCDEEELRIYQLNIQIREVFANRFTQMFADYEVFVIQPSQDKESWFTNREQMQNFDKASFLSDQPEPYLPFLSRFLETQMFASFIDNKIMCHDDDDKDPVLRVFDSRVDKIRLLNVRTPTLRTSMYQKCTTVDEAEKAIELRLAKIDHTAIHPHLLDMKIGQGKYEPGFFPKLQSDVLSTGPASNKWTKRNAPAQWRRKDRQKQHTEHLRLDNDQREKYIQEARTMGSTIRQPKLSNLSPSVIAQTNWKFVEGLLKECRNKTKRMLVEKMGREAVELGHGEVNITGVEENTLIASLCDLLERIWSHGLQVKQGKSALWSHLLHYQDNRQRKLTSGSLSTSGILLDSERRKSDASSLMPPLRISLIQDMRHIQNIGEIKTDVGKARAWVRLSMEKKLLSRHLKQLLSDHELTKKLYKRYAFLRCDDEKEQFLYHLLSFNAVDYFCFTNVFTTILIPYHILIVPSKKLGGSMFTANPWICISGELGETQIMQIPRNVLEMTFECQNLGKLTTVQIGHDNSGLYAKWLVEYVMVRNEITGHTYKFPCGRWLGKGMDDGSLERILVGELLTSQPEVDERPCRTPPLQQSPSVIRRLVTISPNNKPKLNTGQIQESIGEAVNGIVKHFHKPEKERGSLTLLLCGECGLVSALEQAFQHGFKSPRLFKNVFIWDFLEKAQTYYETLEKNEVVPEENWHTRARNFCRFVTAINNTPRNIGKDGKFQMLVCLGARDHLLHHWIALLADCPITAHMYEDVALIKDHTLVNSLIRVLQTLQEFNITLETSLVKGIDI


Assays:
Rab8a6-176(GppNHp) = molecular target: T1, Rab8a6-176(GppNHp); assay: Competition fluorescence polarization assay (displacement of labelled peptide 25); format: binding; details: for Competition with labelled peptide 25 (in words): excess of acetylated peptide added to complex of labelled peptide 25 and Rab8a6-176(GppNHp)
Experimental: Acetylated peptides were serially diluted and incubated with a mixture of the fluorescein-labelled peptide and Rab8a6–176 (GppNHp) at room temperature for 1 h. Fluorescence polarization was determined and IC50 values were calculated by nonlinear regression analysis using Prism 5.0 software (GraphPad)[64].
Rab8a6-176 (GppNHp) was serially diluted in assay buffer and treated with 133 nM fluorescein-labeled peptide. After incubation for 4 h at room temperature the mixture was soaked into capillaries for microscale thermophoresis (MST) measurements. Kd values were calculated after initial fluorescene analysis of the obtained MST curves using the software Monolith Affinity Analysis (NanoTemper Technologies).
Competition fluorescence polarization assay
Acetylated peptides were serially diluted in assay buffer (1:1) and were incubated with a mixture of […] fluorescein-labeled peptide and Rab8a6-176 (GppNHp) (15 µM or 100 µM depending on Kd of the labeled peptide) for 1 h at room temperature.
Fluorescence polarization was dertermined and half maximal inhibitory concentrations (IC50) were calculated by nonlinear regression analysis of dose-response curves using Prism 5.0 software (GraphPad).5

peptide 28 = molecular target: T2, peptide 28; assay: fluorescence polarization

| IC50 (Rab8a6-176(GppNHp); acetylated peptide as competitor, fluorescein-labelled peptide 25 (60 nM) bound to Rab8a(GppNHp) 15 μM, 1 h room temperature, triplicates, errors 1σ) [µM] | Competition with labelled peptide 25 (in words) (Rab8a6-176(GppNHp)) | Kd (peptide 28) [µM] | Molecule |
| --- | --- | --- | --- |
| 33 | full displacement of peptide 25 | – | CC(=O)N[C@@H](CC(=O)O)C(=O)N[C@@H](CC(=O)O)C(=O)N[C@@H](CCC(=O)O)C(=O)N[C@@]1(C)CCC/C=C\CCC[C@@](C)(C(=O)N[C@@H](Cc2ccc(O)cc2)C(=O)N[C@@H](Cc2c[nH]cn2)C(=O)N[C@@H](CC(C)C)C(=O)N[C@@H](CC(C)C)C(=O)N[C@@H](CO)C(=O)N[C@@H](Cc2ccccc2)C(=O)N[C@@H](CC(N)=O)C(=O)N[C@@H](C)C(=O)N[C@H](C(N)=O)C(C)C)NC(=O)[C@H](Cc2ccccc2)NC(=O)[C@H](CCC(N)=O)NC(=O)[C@H](CCC(=O)O)NC1=O [acetylated StRIP3] (Ac-DDE[S5]EQF[S5]YHLLSFNAV-NH2; staple (Z) 4-8; C-terminus assumed) |
| – | does not compete with peptide 25 | – | CC(=O)N[C@@H](CC(=O)O)C(=O)N[C@@H](CC(=O)O)C(=O)N[C@@H](CCC(=O)O)C(=O)N[C@@H](CCCCN)C(=O)N[C@@H](CCC(=O)O)C(=O)N[C@@H](CCC(N)=O)C(=O)N[C@@H](Cc1ccccc1)C(=O)N[C@@H](CC(C)C)C(=O)N[C@@H](Cc1ccc(O)cc1)C(=O)N[C@@H](Cc1c[nH]cn1)C(=O)N[C@@H](CC(C)C)C(=O)N[C@@H](CC(C)C)C(=O)N[C@@H](CO)C(=O)N[C@@H](Cc1ccccc1)C(=O)N[C@@H](CC(N)=O)C(=O)N[C@@H](C)C(=O)N[C@H](C(N)=O)C(C)C [wt-R6IP] (Ac-DDEKEQFLYHLLSFNAV-NH2; N-terminus and C-terminus assumed) |
| – | – | 9.6 | Rab8a 6-176 (protein, GppNHp-bound Rab8a; bicyclic alkyne/olefin crosslinked StRIP3 derivative, fluorescein-PEG label) DYLFKLLLIGDSGVGKTCVLFRFSEDAFNSTFISTIGIDFKIRTIELDGKRIKLQIWDTAGQERFRTITTAYYRGAMGIMLVYDITNEKSFDNIRNWIRNIEEHASADVEKMILGNKCDVNDKRQVSKERGEKLALDYGIKFMETSAKANINVENAFFTLARDIKAKMDKK |
